Experimental findings from patent US20250154169A1, “COMPOUNDS AND METHODS FOR MODULATING SPLICING” (REMIX THERAPEUTICS INC., priority 2021, published 2025) are described below.

The subject of one assay is Target C. The assay can be described thus: Protein abundance, HiBit-assay system (Promega), Target C. Type of assay: cell-based, human. The settings on record: Table 6; HiBiT-modified K562 cells, 24 hours. Here is the method:
Compounds described herein were used to screen for effects on quantitative protein abundance using a HiBit assay system (Promega). Quantitative protein abundance was determined by measuring the protein levels of HiBit-tagged protein targets expressed in cell culture via luminescence using the Nano-Glo HiBiT Lytic Detection System, which uses a split complementation assay format to reconstitute NanoBiT enzyme to generate a luminescent signal. A protein abundance assay was developed such that endogenous protein targets could be modified with the HiBiT peptide tag and their abundance could be assessed after compound treatment. Briefly, K562 cell lines containing a HiBiT-modification were treated with various compounds described herein (e.g., compounds of Formulas (I) or (II)). After treatment for 24 hours, the protein abundance of a specific target was determined by measuring luminescence.
Cells were maintained in EIDM with 10% FBS. Before the assay, cells were diluted with […] growth media (EIDM+1% FBS media) and were seeded in a 384-well plate at a density of 10000 cells/well (for each cell line listed in Table 5). Each compound was prepared as a 10-point 3-fold serial dilution in DMSO with the top dose at a final concentration of 10 μM in the well. Unmodified K562 cells were added at the previously specified density with DMSO to serve as an assay baseline and positive control (PC) and DMSO only with the respective modified cell lines was added to the negative control (NC) columns. Final DMSO concentration was kept at or below 0.25%. Treated cell plates were placed in an incubator at 37° C. with 5% CO2 for 24 hours. After 24 hours, 25 μL of Complete HiBit Lytic reagent was added to each well at room temperature (e.g. one plate requiring 10 mL Lytic Buffer, 100 μL LgBiT Protein, 200 μL Lytic Substrate), shaken for 5 minutes at 600 RPM, then left to sit for 10 minutes for signal to stabilize before reading on a Spark Cyto plate reader (Tecan) with a 500 ms measurement time.
To determine compound effects on protein abundance of each target in Table 6, the percent response for each respective cell line was calculated at each compound concentration as follows:
For the normalized response at each concentration, a four-parameter logistical regression was fit to the data and the response was interpolated at the 50% value to determine a concentration for protein abundance at […] the untreated control.
A general note: HiBiT is a short tag that completes a luciferase, so light tracks the accessible tagged protein.

For another assay, the system named is HTT mRNA. Nature of the assay: Splicing RT-qPCR assay, HTT canonical (CJ) and alternative (AJ) junction mRNA. Type of assay: cell-based, human. The settings on record: Homo sapiens, A673 or K562 cells, 24 hours compound treatment; for IC50: 24 h, read-out: HTT CJ (IC50, decrease in canonical junction mRNA); for AC50: read-out: HTT AJ (AC50, increase in alternative junction mRNA). The method, boiled down: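 A673 or K562 cells were treated 24 h at 37 °C with an 11-point 3-fold compound dilution series (top 10 uM, DMSO ≤0.25%). Lysates went to one-step RT-qPCR measuring canonical (CJ) and alternative-exon (AJ) junction transcripts, normalized to GAPDH, GUSB or PPIA.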
(In general: Quantitative PCR measures a nucleic acid by following its amplification.)

A word on the IC50: it is the concentration at which inhibition is half-maximal. The AC50 is the midpoint of the concentration-response curve, whichever way the signal moves. On to `Cc1cn2cc(NC(=O)c3ccc(N4CC[C@@H](NC56CC(C5)C6)C4)c4cn(C)nc34)cc(F)c2n1` [Compound 568, 4-[(3R)-3-{bicyclo[1.1.1]pentan-1-ylamino}pyrrolidin-1-yl]-N-{8-fluoro-2-methylimidazo[1,2-a]pyridin-6-yl}-2-methylindazole-7-carboxamide], for which the IC50 in the assay on Target C and with HTT mRNA was 1 to 10 µM in each case. Further, the AC50 in the assay on HTT mRNA was in the range of 1 to 10 µM.
With `CCn1cc2c(N3CCC(NC4CC4)C3)cc(F)c(C(=O)Nc3cc(F)c4nc(C)cn4c3)c2n1` (stereo not drawn) [Compound 569, 4-[3-(cyclopropylamino)pyrrolidin-1-yl]-2-ethyl-6-fluoro-N-{8-fluoro-2-methylimidazo[1,2-a]pyridin-6-yl}indazole-7-carboxamide], the IC50 in the assay on Target C was 1 to 10 µM; with HTT mRNA, more than 10 µM. The AC50 in the assay on HTT mRNA lay in the range of 1 to 10 µM.
`Cc1cn2cc(NC(=O)c3c(F)cc(N4CC[C@@H](NC5CC5)C4)c4cn(C)nc34)cc(F)c2n1` [Compound 571, 4-[(3R)-3-(cyclopropylamino)pyrrolidin-1-yl]-6-fluoro-N-{8-fluoro-2-methylimidazo[1,2-a]pyridin-6-yl}-2-methylindazole-7-carboxamide] displayed an IC50 in the assay on Target C of 1 to 10 µM. Besides, in the assay with HTT mRNA, the IC50 was 0.1 to 1 µM and the AC50 was in the range of 0.1 to 1 µM.
Consider `Cc1cn2cc(NC(=O)c3ccc(N4CC[C@@H](NCc5cnc(Cl)nc5)C4)c4cn(C)nc34)cc(F)c2n1` [Compound 573, 4-[(3R)-3-{[(2-chloropyrimidin-5-yl)methyl]amino}pyrrolidin-1-yl]-N-{8-fluoro-2-methylimidazo[1,2-a]pyridin-6-yl}-2-methylindazole-7-carboxamide], for which the IC50 in the assay with Target C is more than 10 µM. In the assay with HTT mRNA, the IC50 is more than 10 µM and the AC50 was more than 10 µM.
In the case of `Cc1cn2cc(NC(=O)c3ccc(N4CCC(C)(NC(C)C)C4)c4cn(C)nc34)cc(F)c2n1` (stereo not drawn) [Compound 574], the IC50 with Target C and in the assay with HTT mRNA was more than 10 µM in each case. Also, the AC50 in the assay on HTT mRNA was more than 10 µM.
In the case of `CCn1cc2c(N3CCNCC3)ccc(C(=O)Nc3cc(F)c4ncccc4c3)c2n1` [Compound 575], the IC50 in the assay with Target C was more than 10 µM. In addition, in the assay with HTT mRNA, the IC50 is more than 10 µM and the AC50 was more than 10 µM.
